In US7589080B2, “β-cyclodextrin compositions, and use to prevent transmission of sexually transmitted diseases” (priority 2000, dated 2009):

How the values were obtained:
HIV = settings: inhibition of sphingolipid synthesis; cited from earlier work
vaginal epithelium = assay: Vaginal epithelial toxicity (ethidium bromide homodimer-1 staining); assay type: in vivo, CF-1 mice; settings: 1% (w/v), intravaginal, 15 min
Description: CF-1 mice were pretreated with 2.5 mg progestin; one week later, three groups of three mice each were inoculated with 50 Tl of either PBS, 1% (w/v) nonoxynol-9, or 3% (w/v) 2-OH-βCD (20 mM). Each test solution also contained the membrane-impermeant DNA binding fluorescent dye, ethidium bromide homodimer-1 (20 TM, Molecular Probes; Eugene Oreg.; Hyytinen et al., supra, 1994). Fifteen min following exposure to the test agents the mice were euthanized, the vaginas were dissected and opened longitudinally, and viewed using a fluorescent microscope and TRITC filter set.
To examine the effect of a βCD on the vaginal epithelium, CF-1 mice were pretreated with progesterone and one week later were inoculated with 50 Tl of either phosphate buffered saline (PBS), 1% (w/v) nonoxynol-9, or 3% (w/v) 2-OH-βCD (20 mM) containing the membrane impermeant DNA binding fluorescent dye, ethidium bromide homodimer-1. The vaginas of the mice were viewed by fluorescent microscopy.

Compound	Reduction of HIV infection of CD4+ human cells (HIV) [%]	Damage to vaginal epithelium (vaginal epithelium)
CCCCCCCCCCCCCCCC(=O)NC(CN1CCOCC1)C(O)c1ccccc1 (centres unmarked) [PPMP, 1-phenyl-2-hexadecanoylamino-3-morpholino-1-propanol]	50	–
nonoxynol-9	–	considerable epithelial damage
